Drawing on patent publication US11046680B1, “Heteroaryl-substituted triazoles as APJ receptor agonists” (priority 2016, dated 2021), this text covers EC50 for 23 molecules.

Chain of human APJ receptor (P35414 whole entry): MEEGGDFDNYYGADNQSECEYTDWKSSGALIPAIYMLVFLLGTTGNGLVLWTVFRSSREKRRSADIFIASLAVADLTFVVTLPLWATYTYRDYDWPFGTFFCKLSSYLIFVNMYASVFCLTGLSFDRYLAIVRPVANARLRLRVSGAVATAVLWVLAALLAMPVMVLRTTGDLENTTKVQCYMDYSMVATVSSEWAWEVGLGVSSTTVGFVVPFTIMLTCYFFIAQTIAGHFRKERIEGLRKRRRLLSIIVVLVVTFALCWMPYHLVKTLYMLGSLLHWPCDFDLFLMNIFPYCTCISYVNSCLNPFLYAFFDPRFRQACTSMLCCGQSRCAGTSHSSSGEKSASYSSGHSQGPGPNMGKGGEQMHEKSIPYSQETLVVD

For this assay, the target named is human APJ receptor (Homo sapiens (Human), UniProt P35414). Description: biochemical. Conditions: [35S]GTPγS binding, CHO membranes expressing human APJ receptor; read-out: Activity hAPJ SPA EC50 IP. The assay is classed as biochemical. Summed up:
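GTPγS binding on membranes from CHO cells stably expressing FLAG-tagged human APJ, with optimized GDP, MgCl2 and NaCl; incubated 90 min at RT before imaging read-out.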
In general terms: GTPγS resists hydrolysis and so accumulates on activated G proteins.
For `COc1cccc(OC)c1-n1c(NS(=O)(=O)[C@@H]2C[C@@H](O)CN(c3ncc(F)cn3)C2)nnc1-c1nc(C)cs1` (single isomer, unassigned) [Example 257.0, (3R,5R)-N-(4-(2,6-dimethoxyphenyl)-5-(4-methyl-1,3-thiazol-2-yl)-4H-1,2,4-triazol-3-yl)-1-(5-fluoro-2-pyrimidinyl)-5-hydroxy-3-piperidinesulfonamide or (3S,5S)-N-(4-(2,6-dimethoxyphenyl)-5-(4-methyl-1,3-thiazol-2-yl)-4H-1,2,4-triazol-3-yl)-1-(5-fluoro-2-pyrimidinyl)-5-hydroxy-3-piperidinesulfonamide], the 50% effective concentration (EC50) (in general, the concentration needed to bring the measured effect to its halfway point) turned out to be 3.9 nM.

For `COc1ncnc(OC)c1-n1c(NS(=O)(=O)[C@@H](C)[C@H](OC)c2ncc(C)cn2)nnc1-c1csc(C)n1` [Example 5.0, (1R,2S)-N-(4-(4,6-dimethoxypyrimidin-5-yl)-5-(2-methylthiazol-4-yl)-4H-1,2,4-triazol-3-yl)-1-methoxy-1-(5-methylpyrimidin-2-yl)propane-2-sulfonamide], the concentration giving a half-maximal response (EC50) worked out at 4.1 nM.

As for `COc1cccc(OC)c1-n1c(NS(=O)(=O)C[C@H](OC)c2ccc(Cl)cn2)nnc1-c1ccn(C)n1` (single isomer, unassigned) [Example 377.0, (R)-2-(5-Chloropyridin-2-yl)-N-(4-(2,6-dimethoxyphenyl)-5-(1-methyl-1H-pyrazol-3-yl)-4H-1,2,4-triazol-3-yl)-2-methoxyethanesulfonamide or (S)-2-(5-chloropyridin-2-yl)-N-(4-(2,6-dimethoxyphenyl)-5-(1-methyl-1H-pyrazol-3-yl)-4H-1,2,4-triazol-3-yl)-2-methoxyethanesulfonamide], the concentration for a half-maximal effect (EC50) stood at 0.6 nM.

With `COc1cccc(OC)c1-n1c(NS(=O)(=O)[C@H](C)Cc2ncc(F)cn2)nnc1-c1nc(C)cs1` [Example 103.0], the EC50 amounted to 8.4 nM.

As to `COc1cccc(OC)c1-n1c(NS(=O)(=O)[C@@H](C)Cc2ncc(C)cn2)nnc1-c1nc(C)cs1` (single isomer, unassigned) [Example 9.0, (2S)-N-(4-(2,6-dimethoxyphenyl)-5-(4-methyl-1,3-thiazol-2-yl)-4H-1,2,4-triazol-3-yl)-1-(5-methyl-2-pyrimidinyl)-2-propanesulfonamide or (2R)-N-(4-(2,6-dimethoxyphenyl)-5-(4-methyl-1,3-thiazol-2-yl)-4H-1,2,4-triazol-3-yl)-1-(5-methyl-2-pyrimidinyl)-2-propanesulfonamide], the EC50 turned out to be 11 nM.

For the molecule `CCc1csc(-c2nnc(NS(=O)(=O)[C@H](C)Cc3ncc(F)cn3)n2-c2c(OC)cccc2OC)n1` (single isomer, unassigned) [Example 105.0, (R)-N-(4-(2,6-dimethoxyphenyl)-5-(4-ethylthiazol-2-yl)-4H-1,2,4-triazol-3-yl)-1-(5-fluoropyrimidin-2-yl)propane-2-sulfonamide or (S)-N-(4-(2,6-dimethoxyphenyl)-5-(4-ethylthiazol-2-yl)-4H-1,2,4-triazol-3-yl)-1-(5-fluoropyrimidin-2-yl)propane-2-sulfonamide], the 50% effective concentration (EC50) amounted to 1.4 nM.

Consider `COCC(COC)n1c(NS(=O)(=O)[C@@H](C)[C@H](C)c2ncc(Cl)cn2)nnc1-c1nn(C)c2ccccc12` [Example 449.0, (2S,3R)-3-(5-chloropyrimidin-2-yl)-N-(4-(1,3-dimethoxypropan-2-yl)-5-(1-methyl-1H-indazol-3-yl)-4H-1,2,4-triazol-3-yl)butane-2-sulfonamide], for which the 50% effective concentration (EC50) was 13 nM.

Regarding `COc1cccc(OC)c1-n1c(NS(=O)(=O)[C@@H](C)Cc2ncc(C)cn2)nnc1-c1nc(C)cs1` (single isomer, unassigned) [Example 8.0, (2S)-N-(4-(2,6-dimethoxyphenyl)-5-(4-methyl-1,3-thiazol-2-yl)-4H-1,2,4-triazol-3-yl)-1-(5-methyl-2-pyrimidinyl)-2-propanesulfonamide or (2R)-N-(4-(2,6-dimethoxyphenyl)-5-(4-methyl-1,3-thiazol-2-yl)-4H-1,2,4-triazol-3-yl)-1-(5-methyl-2-pyrimidinyl)-2-propanesulfonamide], the EC50 was determined as 0.75 nM.

Regarding `CNC(=O)n1ccc(-c2nnc(NS(=O)(=O)[C@@H](C)Cc3ncc(F)cn3)n2-c2c(OC)cccc2OC)n1` (single isomer, unassigned) [Example 74.0], the half-maximal effective concentration (EC50) amounted to 22 nM.

Consider `COc1ncnc(OC)c1-n1c(NS(=O)(=O)[C@@H](C)[C@H](C)c2ccc(Cl)cn2)nnc1-c1ccn(C)n1` [Example 534.0, (2S,3R)-3-(5-chloro-2-pyridinyl)-N-(4-(4,6-dimethoxy-5-pyrimidinyl)-5-(1-methyl-1H-pyrazol-3-yl)-4H-1,2,4-triazol-3-yl)-2-butanesulfonamide], for which the half-maximal effective concentration (EC50) was found to be 0.93 nM.

Consider `COc1cccc(OC)c1-n1c(NS(=O)(=O)CCc2ccc(Cl)cc2)nnc1-c1cncn1C` [Example 93.0, 2-(4-chlorophenyl)-N-(4-(2,6-dimethoxyphenyl)-5-(1-methyl-1H-imidazol-5-yl)-4H-1,2,4-triazol-3-yl)ethanesulfonamide], for which the EC50 came out at 20 nM.

As for `COc1cccc(OC)c1-n1c(NS(=O)(=O)[C@H](C)[C@@H](OC)c2ncc(F)cn2)nnc1-c1ccn(C)n1` (single isomer, unassigned) [Example 118.0, (1S,2R)-N-(4-(2,6-dimethoxyphenyl)-5-(1-methyl-1H-pyrazol-3-yl)-4H-1,2,4-triazol-3-yl)-1-(5-fluoropyrimidin-2-yl)-1-methoxypropane-2-sulfonamide or (1R,2S)-N-(4-(2,6-dimethoxyphenyl)-5-(1-methyl-1H-pyrazol-3-yl)-4H-1,2,4-triazol-3-yl)-1-(5-fluoropyrimidin-2-yl)-1-methoxypropane-2-sulfonamide], the concentration giving a half-maximal response (EC50) is 100 nM.

In the case of `O=S(=O)(Cc1ccc(Cl)cc1)Nc1nnc(-c2cccs2)n1-c1ccccc1OC(F)F` [Example 237.0, 1-(4-chlorophenyl)-N-(4-(2-(difluoromethoxy)phenyl)-5-(2-thiophenyl)-4H-1,2,4-triazol-3-yl)methanesulfonamide], the concentration giving a half-maximal response (EC50) was above 12500 nM.

On to `COCC1(n2c(NS(=O)(=O)[C@@H](C)[C@H](OC)c3ncc(Cl)cn3)nnc2-c2n[nH]c3ccccc23)CC1` [Example 495.0, (1R,2S)-1-(5-chloro-2-pyrimidinyl)-N-(5-(1H-indazol-3-yl)-4-(1-(methoxymethyl)cyclopropyl)-4H-1,2,4-triazol-3-yl)-1-methoxy-2-propanesulfonamide], for which the concentration for a half-maximal effect (EC50) is 13 nM.

As to “(1R,2S)-N-(4-(2,6-dimethoxyphenyl)-5-(1H-pyrro1o[2,3-b]pyridin-3-yl)-4H-1,2,4-triazol-3-yl)-1-methoxy-1-(5-methylpyrimidin-2-yl)propane-2-sulfonamide [Example 413.0]”, the EC50 came out at 30 nM.

Take `COc1cnc([C@H](C)[C@@H](C)S(=O)(=O)Nc2nnc(-c3ccn(C)n3)n2-c2c(OC)cccc2OC)nc1` [Example 457.0, (2R,3S)-N-(4-(2,6-dimethoxyphenyl)-5-(1-methyl-1H-pyrazol-3-yl)-4H-1,2,4-triazol-3-yl)-3-(5-methoxy-2-pyrimidinyl)-2-butanesulfonamide]: the half-maximal effective concentration (EC50) amounted to 25 nM.

As to `COc1ccc2[nH]c(-c3nnc(NS(=O)(=O)[C@@H](C)[C@H](OC)c4ncc(C)cn4)n3-c3c(OC)cccc3OC)cc2c1` [Example 336.0, (1R,2S)-N-(4-(2,6-dimethoxyphenyl)-5-(5-methoxy-1H-indo1-2-yl)-4H-1,2,4-triazol-3-yl)-1-methoxy-1-(5-methyl-2-pyrimidinyl)-2-propanesulfonamide], the EC50 stood at 310 nM.

As for `CO[C@H](c1ncc(Cl)cn1)[C@H](C)S(=O)(=O)Nc1nnc(-c2n[nH]c3c2CCC3)n1C1(C)CCC1` [Example 492.0, (1R,2S)-1-(5-chloropyrimidin-2-yl)-1-methoxy-N-(4-(1-methylcyclobutyl)-5-(1,4,5,6-tetrahydrocyclopenta[c]pyrazol-3-yl)-4H-1,2,4-triazol-3-yl)propane-2-sulfonamide], the EC50 is 34 nM.

As to `COc1cccc(OC)c1-n1c(NS(=O)(=O)[C@@H](C)[C@H](OC)c2ncc(C)cn2)nnc1-c1ccon1` [Example 90.0, (1R,2S)-N-(4-(2,6-dimethoxyphenyl)-5-(isoxazol-3-yl)-4H-1,2,4-triazol-3-yl)-1-methoxy-1-(5-methylpyrimidin-2-yl)propane-2-sulfonamide], the concentration for a half-maximal effect (EC50) is 33 nM.

Take `COc1ccc(C(=O)O)cc1-n1c(NS(=O)(=O)Cc2ccc(Cl)cc2)nnc1-c1cccs1` [Example 384.0, 3-(3-((4-Chlorophenyl)methylsulfonamido)-5-(thiophen-2-yl)-4H-1,2,4-triazol-4-yl)-4-methoxybenzoic acid]: the EC50 is above 12500 nM.

As for `CCO[C@@H](c1ncc(Cl)cn1)[C@H](C)S(=O)(=O)Nc1nnc(-c2ccn(C)n2)n1-c1c(OC)cccc1OC` (single isomer, unassigned) [Example 352.0, (1S,2S)-1-(5-chloropyrimidin-2-yl)-N-(4-(2,6-dimethoxyphenyl)-5-(1-methyl-1H-pyrazol-3-yl)-4H-1,2,4-triazol-3-yl)-1-ethoxypropane-2-sulfonamide or (1R,2R)-1-(5-chloropyrimidin-2-yl)-N-(4-(2,6-dimethoxyphenyl)-5-(1-methyl-1H-pyrazol-3-yl)-4H-1,2,4-triazol-3-yl)-1-ethoxypropane-2-sulfonamide], the half-maximal effective concentration (EC50) was determined as 35 nM.

As for `COc1cccc(OC)c1-n1c(NS(=O)(=O)[C@@H](C)[C@H](OC)c2ncc(C)cn2)nnc1-c1ccnc2ccccc12` [Example 417.0], the 50% effective concentration (EC50) amounted to 510 nM.

`COc1cccc(OC)c1-n1c(NS(=O)(=O)[C@@H](C)[C@@H](OC(C)C)c2ncc(C)cn2)nnc1-c1noc(C)c1C` [Example 517.0, (1S,2S)-N-(4-(2,6-dimethoxyphenyl)-5-(4,5-dimethylisoxazol-3-yl)-4H-1,2,4-triazol-3-yl)-1-isopropoxy-1-(5-methylpyrimidin-2-yl)propane-2-sulfonamide]: the EC50 came to 3 nM.
